Data taken from US6590118B1, “Aromatic compounds” (Novo Nordisk A/S, priority 1999, dated 2003).

Molecule `COC(=O)c1ccc(C(=O)c2ccccc2NC(=O)c2cccc([N+](=O)[O-])c2)cc1C(=O)OC` [Compound 115, 4-[2-(3-Nitrobenzoylamino)benzoyl]phthalic acid dimethyl ester] has a melting point of 133 to 137 °C.
With `O=C(Nc1ccccc1Sc1ccc(C(=O)O)c(C(=O)O)c1)c1cccc([N+](=O)[O-])c1` [Compound 125, 4-[2-(3-Nitrobenzoylamino)phenylsulphenyl]phthalic acid] the melting point was 172.8 to 173.9 °C.
For `O=C(O)c1ccc(Oc2ccccc2NC(=O)c2cccc([N+](=O)[O-])c2)c(C(=O)O)c1` [Compound 122, 4-[2-(3-Nitrobenzoylamino)phenoxy]isophthalic acid], the melting point was 255 to 257 °C.
`O=C(Cc1cc([N+](=O)[O-])ccc1Cl)Nc1ccccc1Oc1ccc(C(=O)O)c(C(=O)O)c1` [Compound 175, 4-{2-[2-(2-Chloro-5-nitrophenyl)acetylamino]phenoxy}phthalic acid] gave a melting point of 176 to 178.2 °C.
`O=C(O)c1cc(Oc2ccccc2NC(=O)c2cccc([N+](=O)[O-])c2)cc(C(=O)O)c1` [Compound 121, 5-[2-(3-Nitrobenzoylamino)phenoxy]isophthalic acid] gave a melting point of 184 to 190 °C.
For `O=C(O)c1cccc(NC(=O)c2ccccc2Oc2ccc(C(=O)O)c(C(=O)O)c2)c1` [Compound 134, 4-[2-(3-Carboxyphenylcarbamoyl)phenoxy]phthalic acid], the melting point was 202 to 208 °C.
Molecule `O=C(Cc1ccc(O)c([N+](=O)[O-])c1)Nc1ccccc1Oc1ccc(C(=O)O)c(C(=O)O)c1` [Compound 174, 4-{2-[2-(4-Hydroxy-3-nitrophenyl)-acetylamino]phenoxy}phthalic acid] has a melting point of 187.8 to 189.9 °C.
Molecule `O=C(Nc1ccc(Oc2ccc(C(=O)O)c(C(=O)O)c2)cc1)c1cccc([N+](=O)[O-])c1` [Compound 123, 4-[4-(3-Nitrobenzoylamino)phenoxy]phthalic acid] has a melting point of 225 to 227 °C.
In the case of `N#Cc1ccc(Oc2ccccc2NC(=O)c2cccc([N+](=O)[O-])c2)cc1C#N` [Compound 176, N-[2-(3,4-Dicyanophenoxy)phenyl]-3-nitrobenzamide], the melting point is reported as 176.5 to 178.1 °C.
Work on `COC(=O)c1ccc(C(=O)c2ccc(NC(=O)c3cccc([N+](=O)[O-])c3)cc2)cc1C(=O)OC` [Compound 114, 4-[4-(3-Nitrobenzoylamino)benzoyl]phthalic acid dimethyl ester] yielded a melting point of 144 to 146 °C.
In the case of `CC(=O)Nc1ccccc1Oc1ccc(C#N)c(C#N)c1` [Compound 94, N-[2-(3,4-Dicyanophenoxy)phenyl]acetamide], the melting point is reported as 152.2 to 153.7 °C.
